Test results as given in PMC4505687, “5-HT3 Receptor Brain-Type B-Subunits are Differentially Expressed in Heterologous Systems” (ACS Chemical Neuroscience, 2015).
Where two headings read alike, the source gives them in different places. Marks after values point to notes of the source that are not given here. Blank lines part the entries; values can stand above or below the molecule they belong to.

Legend:
[1] = test system: 5-HT3 receptors (5-HT3A, 5-HT3AB, 5-HT3ABr1, 5-HT3ABr2); test: Competition binding against [3H]granisetron at different 5-HT3 receptors expressed in HEK293 cells
Method: Transfected HEK 293 cells were scraped into 1 mL of ice-cold HEPES buffer (10 mM, pH 7.4) and frozen. […] For competition binding (8 point), reactions were incubated for at least 1 h at 4 °C. Reactions were terminated by vacuum filtration using a Brandel cell harvester onto GF/B filters presoaked in 0.3% polyethylenimine. Radioactivity was determined by scintillation counting using a Beckman BCLS6500 instrument (Fullerton, CA). Individual competition binding experiments were analyzed by iterative curve fitting using Prism.

5-HT3A receptors [2] = target: T1, 5-HT3A receptors (Homo sapiens, UniProt P46098); details: cited from earlier work
T1 construct: expressed in transfected cells; host or cells: Xenopus laevis oocytes (cRNA from pGEMHE) or HEK293 cells (pcDNA3.1)
T1 sequence (P46098 24-478): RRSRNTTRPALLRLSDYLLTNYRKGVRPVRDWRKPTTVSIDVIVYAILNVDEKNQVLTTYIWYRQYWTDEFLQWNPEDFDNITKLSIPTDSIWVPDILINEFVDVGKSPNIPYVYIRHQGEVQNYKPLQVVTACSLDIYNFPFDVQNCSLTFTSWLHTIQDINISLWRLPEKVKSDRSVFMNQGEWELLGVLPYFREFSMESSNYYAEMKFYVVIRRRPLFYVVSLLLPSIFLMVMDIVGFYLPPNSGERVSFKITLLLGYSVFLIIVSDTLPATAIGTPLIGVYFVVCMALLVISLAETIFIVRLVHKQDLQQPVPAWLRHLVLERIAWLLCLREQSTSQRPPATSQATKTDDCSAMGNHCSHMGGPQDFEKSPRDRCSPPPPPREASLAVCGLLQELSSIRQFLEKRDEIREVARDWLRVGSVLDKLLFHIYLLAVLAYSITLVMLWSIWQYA

5-HT3ABr2 receptors [3] = target: T2, 5-HT3ABr2 receptors (Homo sapiens, UniProt P46098); test: 5-HT-induced macroscopic currents, two-electrode voltage-clamp in Xenopus oocytes; format: cell-based
T2 construct: expressed in transfected cells; host or cells: Xenopus laevis oocytes (cRNA from pGEMHE) or HEK293 cells (pcDNA3.1), A:Br2 ratio 1:3 unless otherwise stated
T2 sequence (P46098 24-478): T1 sequence (P46098 24-478)
Method: (§1) Xenopus laevis oocyte-positive females were purchased from NASCO (Fort Atkinson, WI) and maintained according to standard methods. Harvested stage V–VI Xenopus oocytes were washed in four changes of Ca-free ND96 (96 mM NaCl, 2 mM KCl, 1 mM MgCl2, 5 mM HEPES, pH 7.5), defolliculated in 1.5 mg mL^–1 collagenase Type 1A for approximately 2 h, washed again in four changes of ND96, and then stored in ND96 containing 2.5 mM sodium pyruvate, […] gentamycin, and 0.7 mM theophylline.
(§2) cDNA was cloned into pGEMHE for oocyte expression, and pcDNA3.1 (Invitrogen, Paisley, U.K.) for expression in HEK 293 cells. Mutagenesis (Figure 1) was performed using QuikChange (Agilent Technologies Inc., Santa Clara, CA). cRNA was in vitro transcribed from linearized pGEMHE cDNA template using the mMessage mMachine T7 Transcription kit (Ambion, Austin, TX). 5-HT3A was linearized with SphI and 5-HT3B cDNA with NheI. Stage V and VI oocytes were injected with 50 nL of ∼400 ng μL^–1 cRNA, and currents were recorded 1–4 days postinjection. Ratios of 1:3 (5-HT3A:5-HT3B/5-HT3Br1/5-HT3Br2) were used for the expression of heteromeric receptors unless otherwise stated.
(§3) Currents were recorded at a frequency of 5 kHz and filtered at 1 kHz. Microelectrodes were fabricated from borosilicate glass (GC120TF-10, Harvard Apparatus, Edenbridge, Kent, U.K.) using a one stage horizontal pull (P-87, Sutter Instrument Company, Novato, CA) and filled with 3 M KCl. Pipet resistances ranged from 1.0 to 2.0 MΩ. […] Drug application was via a simple gravity fed system calibrated to run at the same rate.

5-HT3ABr1 receptors [4] = target: T3, 5-HT3ABr1 receptors (Homo sapiens, UniProt O95264+P46098); test: Fluorescent membrane potential dye (FlexStation) in transfected HEK293 cells; format: cell-based; details: Hill slope, 5-HT3ABr1 receptors in HEK293 cells, mean ± SEM
T3 sequence (P46098 24-478): T1 sequence (P46098 24-478)
T3 sequence (O95264 1-430 isoform O95264-2): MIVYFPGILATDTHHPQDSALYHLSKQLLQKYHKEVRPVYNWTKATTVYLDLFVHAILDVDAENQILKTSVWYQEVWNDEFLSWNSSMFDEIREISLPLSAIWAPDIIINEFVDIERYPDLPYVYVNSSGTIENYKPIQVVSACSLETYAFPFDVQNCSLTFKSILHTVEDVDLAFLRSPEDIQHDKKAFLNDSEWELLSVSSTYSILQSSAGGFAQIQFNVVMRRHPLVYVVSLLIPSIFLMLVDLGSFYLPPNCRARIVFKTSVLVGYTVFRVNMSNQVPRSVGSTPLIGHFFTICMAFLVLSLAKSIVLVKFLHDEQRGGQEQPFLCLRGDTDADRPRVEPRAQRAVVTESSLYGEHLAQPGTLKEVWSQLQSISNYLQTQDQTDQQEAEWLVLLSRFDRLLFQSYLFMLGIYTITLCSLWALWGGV
Method: (§4) Human embryonic kidney (HEK) 293 cells were maintained on 90 mm tissue culture plates at 37 °C and 7% CO2 in a humidified atmosphere. They were cultured in DMEM:F12 with GlutaMAX I media (Dulbecco’s modified Eagle’s Medium/Nutrient Mix F12 (1:1), Invitrogen, Paisley, U.K.) containing 10% fetal calf serum. Cells in 90 mm dishes were transfected using polyethylenimine (PEI). Then 30 μL of PEI (1 mg/mL), 4 μL of cDNA (1 mg/mL) and 1 mL of DMEM were incubated for 10 min at room temperature, added dropwise to a 80–90% confluent plate, and incubated for 2–3 days. For Flexstation studies, cells were transferred to 96-well plates and allowed to adhere overnight before use.
as §2, with “[…] This was as previously described.[22] […] The cells” for “Ratios of 1:3 (5-HT3A:5-HT3B/5-HT3Br1/5-HT3Br2)”, “incubated at 37 °C” for “used”, “45 min, and then fluorescence was measured in a FlexStation (Molecular Devices) at 2 s intervals for 200 s. […] Analysis and curve fitting was performed using Prism (GraphPad Software, San Diego, CA, www.graphpad.com).” for “the expression of heteromeric receptors unless otherwise stated.”

5-HT3AB receptors [5] = target: T4, 5-HT3AB receptors (Homo sapiens, UniProt O95264+P46098); test: as above; format: cell-based; details: Hill slope, 5-HT3AB receptors in HEK293 cells, mean ± SEM
T4 construct: expressed in transfected cells; host or cells: Xenopus laevis oocytes (cRNA from pGEMHE) or HEK293 cells (pcDNA3.1), A:B ratio 1:3
T4 sequence (P46098 24-478): T1 sequence (P46098 24-478)
T4 sequence (O95264 22-441): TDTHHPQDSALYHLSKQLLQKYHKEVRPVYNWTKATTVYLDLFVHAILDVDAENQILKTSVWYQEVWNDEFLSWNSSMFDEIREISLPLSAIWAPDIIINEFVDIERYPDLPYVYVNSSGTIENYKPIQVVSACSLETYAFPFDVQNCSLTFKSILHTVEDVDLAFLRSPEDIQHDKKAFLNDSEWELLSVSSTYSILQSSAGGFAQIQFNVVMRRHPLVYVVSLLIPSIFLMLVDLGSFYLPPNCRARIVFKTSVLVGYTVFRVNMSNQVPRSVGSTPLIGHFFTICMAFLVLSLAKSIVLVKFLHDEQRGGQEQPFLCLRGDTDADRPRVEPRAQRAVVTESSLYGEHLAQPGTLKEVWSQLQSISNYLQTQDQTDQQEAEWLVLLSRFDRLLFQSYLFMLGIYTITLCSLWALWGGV
Method: as §4
as §2, with “[…] This was as previously described.[22] […] The cells” for “Ratios of 1:3 (5-HT3A:5-HT3B/5-HT3Br1/5-HT3Br2)”, “incubated at 37 °C” for “used”, “45 min, and then fluorescence was measured in a FlexStation (Molecular Devices) at 2 s intervals for 200 s. […] Analysis and curve fitting was performed using Prism (GraphPad Software, San Diego, CA, www.graphpad.com).” for “the expression of heteromeric receptors unless otherwise stated.”

5-HT3ABr2 receptors [6] = target: T2, 5-HT3ABr2 receptors; test: as above; format: cell-based; details: Hill slope, 5-HT3ABr2 receptors in HEK293 cells, mean ± SEM
Method: as §4
as §2, with “[…] This was as previously described.[22] […] The cells” for “Ratios of 1:3 (5-HT3A:5-HT3B/5-HT3Br1/5-HT3Br2)”, “incubated at 37 °C” for “used”, “45 min, and then fluorescence was measured in a FlexStation (Molecular Devices) at 2 s intervals for 200 s. […] Analysis and curve fitting was performed using Prism (GraphPad Software, San Diego, CA, www.graphpad.com).” for “the expression of heteromeric receptors unless otherwise stated.”

5-HT3A receptors [7] = target: T1, 5-HT3A receptors; test: as above; format: cell-based; details: Hill slope, 5-HT3A receptors in HEK293 cells, mean ± SEM
Method: as §4
as §2, with “[…] This was as previously described.[22] […] The cells” for “Ratios of 1:3 (5-HT3A:5-HT3B/5-HT3Br1/5-HT3Br2)”, “incubated at 37 °C” for “used”, “45 min, and then fluorescence was measured in a FlexStation (Molecular Devices) at 2 s intervals for 200 s. […] Analysis and curve fitting was performed using Prism (GraphPad Software, San Diego, CA, www.graphpad.com).” for “the expression of heteromeric receptors unless otherwise stated.”

5-HT3ABr1 receptors [8] = target: T3, 5-HT3ABr1 receptors; test: 5-HT-induced macroscopic currents, two-electrode voltage-clamp in Xenopus oocytes; format: cell-based; details: Hill slope, 5-HT3ABr1 receptors in oocytes
Method: as §1, §2, §3

5-HT3AB receptors [9] = target: T4, 5-HT3AB receptors; test: as above; format: cell-based; details: Hill slope, 5-HT3AB receptors in oocytes
Method: as §1, §2, §3

5-HT3A receptors [10] = target: T1, 5-HT3A receptors; test: as above; format: cell-based; details: Hill slope, 5-HT3A receptors in oocytes
Method: as §1, §2, §3

[11] = competition with 1 nM [3H]granisetron, values shown only in Figure 5

Compound: O=C1c2cccc3c2[C@H](CCC3)CN1[C@@H]1CN2CCC1CC2 [palonosetron]
Ki, rank order of potency and comparison between receptor subtypes [1, 11]: palonosetron > granisetron > MDL-72222 > mCPBG > d-TC

Compound: COc1cc2c3cc1Oc1cc(ccc1O)C[C@@H]1c4c(cc(OC)c(O)c4Oc4ccc(cc4)C[C@@H]3N(C)CC2)CC[N+]1(C)C [d-TC, d-tubocurarine]
Ki, rank order of potency and comparison between receptor subtypes [1]: palonosetron > granisetron > MDL-72222 > mCPBG > d-TC

Compound: CN1[C@@H]2CC[C@H]1C[C@@H](OC(=O)c1cc(Cl)cc(Cl)c1)C2 [MDL-72222]
Ki, rank order of potency and comparison between receptor subtypes [1, 11]: palonosetron > granisetron > MDL-72222 > mCPBG > d-TC

Compound: NC(N)=NC(N)=Nc1cccc(Cl)c1 [mCPBG]
Ki, rank order of potency and comparison between receptor subtypes [1, 11]: palonosetron > granisetron > MDL-72222 > mCPBG > d-TC

Compound: C=C(C)[C@@H]1[C@H]2OC(=O)[C@@H]1[C@]1(O)C[C@H]3O[C@]34C(=O)O[C@H]2[C@]14C [picrotoxinin]
IC50 (5-HT3A receptors [2]): 11 µM
IC50 (5-HT3ABr2 receptors [3]): 17 µM

nH, parameters from functional data (5-HT3ABr1 receptors [4]): 1.5 ± 0.3 ^b
nH, parameters from functional data (5-HT3AB receptors [5]): 1.3 ± 0.2 ^b
nH, parameters from functional data (5-HT3ABr2 receptors [6]): 2.9 ± 0.4 ^c
nH, parameters from functional data (5-HT3A receptors [7]): 3.6 ± 0.8
nH (5-HT3ABr1 receptors [8]): 1.0
nH (5-HT3AB receptors [9]): 1.0
nH (5-HT3A receptors [10]): 2.6
Compound: NCCc1c[nH]c2ccc(O)cc12 [5-HT, 5-hydroxytryptamine]
